From US9670549B2, “Gene expression signatures of neoplasm responsiveness to therapy” (The United States of America, as represented by the …, priority 2011, dated 2017)

Tests used:
[1] = test system: cleaved PARP, BCL-xL, Survivin; experiment: Western blot of apoptosis proteins (U266, L363 lysates); format: cell-based, human; details: U266 or L363 lysates, 48 hours
Protocol: In sequential experiments, the first agent listed was added 24 hours prior to the addition of the second agent.
Western blot of control, single agent, and combination treated (D) L363 or (E) U266 cells at 48 hours.

HDAC1 = HDAC1 (Homo sapiens, UniProt Q13547); details: cited from earlier work
HDAC2 = HDAC2 (Homo sapiens, UniProt Q92769); details: cited from earlier work
Chain of HDAC2 (Q92769 whole entry): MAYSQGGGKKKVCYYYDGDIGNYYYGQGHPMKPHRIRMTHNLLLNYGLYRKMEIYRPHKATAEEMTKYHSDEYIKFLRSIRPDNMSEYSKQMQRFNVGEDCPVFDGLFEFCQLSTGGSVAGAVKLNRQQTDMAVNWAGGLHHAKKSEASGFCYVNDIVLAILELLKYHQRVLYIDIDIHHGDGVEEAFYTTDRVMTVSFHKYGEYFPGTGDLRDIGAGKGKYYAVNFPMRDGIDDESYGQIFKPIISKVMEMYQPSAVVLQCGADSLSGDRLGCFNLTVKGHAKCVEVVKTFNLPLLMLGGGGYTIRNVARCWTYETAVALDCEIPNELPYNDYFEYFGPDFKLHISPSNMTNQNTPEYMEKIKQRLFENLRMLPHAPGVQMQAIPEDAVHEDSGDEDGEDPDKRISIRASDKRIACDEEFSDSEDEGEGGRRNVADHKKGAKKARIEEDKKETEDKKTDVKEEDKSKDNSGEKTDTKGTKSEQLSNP

L363 cells = experiment: L363 cell viability after triapine and/or sirolimus; details: L363, 48 hour treatment
Protocol: (§1) L363 cell viability after 48 hour treatment with triapine and/or sirolimus. Significance between treatments was determined by repeated measures ANOVA with the Bonferroni correction.

RRM2, γH2AX = experiment: Western blot of L363 lysates for RRM2 and DNA damage marker; details: L363, 48 hours; sirolimus 10 nM, entinostat 0.5 μM, Triapine 1 μM
Protocol: as §1

Chain of HDAC1 (Q13547 whole entry): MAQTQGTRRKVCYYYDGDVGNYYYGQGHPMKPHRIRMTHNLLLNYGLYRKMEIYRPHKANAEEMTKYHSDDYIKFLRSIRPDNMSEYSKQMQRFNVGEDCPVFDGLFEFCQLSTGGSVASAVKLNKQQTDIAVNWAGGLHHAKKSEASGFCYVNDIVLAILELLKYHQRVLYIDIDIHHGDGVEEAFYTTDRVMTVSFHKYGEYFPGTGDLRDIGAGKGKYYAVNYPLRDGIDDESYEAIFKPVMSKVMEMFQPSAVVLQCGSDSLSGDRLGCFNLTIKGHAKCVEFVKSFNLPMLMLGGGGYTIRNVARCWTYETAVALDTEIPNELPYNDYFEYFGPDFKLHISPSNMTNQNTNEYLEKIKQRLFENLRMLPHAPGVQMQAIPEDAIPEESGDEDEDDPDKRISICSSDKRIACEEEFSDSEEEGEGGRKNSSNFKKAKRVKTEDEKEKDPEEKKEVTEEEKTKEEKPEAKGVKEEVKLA

Structure (SMILES)	PARP cleavage [1]	activity against HDAC1 (HDAC1)	affinity for HDAC1 (HDAC1)	activity for HDAC2 (HDAC2)	MM cell viability (L363 cells)	DNA damage marker γH2AX (RRM2, γH2AX)
Nc1ccccc1NC(=O)c1ccc(CNC(=O)OCc2cccnc2)cc1 [entinostat]	observed	strong activity	high affinity	weak activity		
NC(=S)N/N=C/c1ncccc1N [triapine]					inhibited MM cell viability	increased yH2AX
